# Assay results as given in PMC7311426, “An amphipathic peptide with antibiotic activity against multidrug-resistant Gram-negative bacteria” (Nature Communications, 2020).
# Like-named read-outs stand apart in the source and are kept apart here. Residues, ends and D or L forms follow the SMILES beside them.
# Key:
# [1] = test system: human erythrocytes (HRBC); format: cell-based; conditions: for Heamolysis HC10: red cells of human, 3 h
# [2] = test system: S. enterica Typhi; assay: microbe, parasite or virus in culture; conditions: Typhi
# Procedure, shortened: (§1)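 MICs were scored by eye after 18-20 h static incubation at 37 °C, with bacteria at 5 × 10^5 CFU mL^−1 in MHB. Peptides were serially diluted 2-fold over 12 points, top 128 or 64 μg mL^−1. CAMHB (CLSI) and 1% agarose-MHB variants were also run, at least six replicates.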
# [3] = test system: E. coli; assay: microbe, parasite or virus in culture
# Procedure, shortened: as §1
# [4] = test system: P. aeruginosa; assay: microbe, parasite or virus in culture
# Procedure, shortened: as §1
# [5] = test system: C. albicans; assay: microbe, parasite or virus in culture; conditions: for MIC: Candida albicans
# [6] = test system: C. neoformans; assay: microbe, parasite or virus in culture; conditions: for MIC: Cryptococcus neoformans, ATCC208821, read-out: BMD MIC, C. neoformans ATCC 208821 H99
# [7] = test system: A. baumannii; assay: microbe, parasite or virus in culture
# Procedure, shortened: as §1
# [8] = test system: L. monocytogenes; assay: microbe, parasite or virus in culture
# Procedure, shortened: as §1
# [9] = test system: K. pneumoniae; assay: microbe, parasite or virus in culture
# Procedure, shortened: as §1
# [10] = test system: E. coli ATCC 25922; assay: microbe, parasite or virus in culture; format: cell-based, Escherichia coli; conditions: ATCC 25922
# Description: Assays were performed in Mueller Hinton broth (MHB; BD, Cat. No. 211443) for bacteria, and yeast extract-peptone dextrose (YPD; Sigma-Aldrich, Y1500) for yeast. The concentrations of the peptides and comparator antibiotics/antifungals in the assay wells ranged from either 128 or 64 μg mL^−1, to 0.06 or 0.03 μg mL^−1 as a 12-point dose response plated as a 2-fold dilution series across the wells of the plate in duplicate for each independent biological replicate, using a final cell density of 5 × 10^5 CFU mL^−1 and 2.5 × 10^3 CFU mL^−1 for bacteria and yeast respectively. Final assay volumes were 100 μL per well with MICs determined visually following 18-20 h incubation at 37 °C for bacteria, 24 h incubation at 35 °C for Candida albicans, and 24 h incubation at 35 °C with resazurin addition (0.006%; Sigma-Aldrich, Cat # R7017) for a further 3 h for Cryptococcus neoformans, without shaking. Additional bacterial and yeast susceptibility assays were performed in Cation-Adjusted Mueller Hinton Broth (CAMHB; BD, Cat No. 212322) and Roswell Park Memorial Institute (RPMI) 1640 culture medium (Life Technologies Australia, Cat No. 21870092), respectively, as recommended by CLSI guidelines (M07 11th ed[36] and M27 4th ed[37]). […] However, for yeast it was determined that the YPD media was more reliable and robust between repeats and therefore MICs in this media are reported. […] Agarose MICs were determined in MHB with 1% agarose (Bioline molecular grade; Cat no: BIO-41025; high purity, high gel strength). All experiments were performed a minimum of six replicates (n ≥ 6).
# [11] = test system: HepG2 liver hepatocellular carcinoma cells; assay: in vitro
# Description: (§2) HEK-293 human embryonic kidney cells (ATCC CRL-1573), HepG2 liver hepatocellular carcinoma cells (ATCC HB-8065), and HK-2 human kidney proximal tubule cells (ATCC CRL-2190) cell lines were purchased from ATCC. Cytotoxicity of arenicin-3 variants was determined using the Alamar Blue (resazurin; Sigma-Aldrich, Cat # R7017), with 1% FBS for HK-2 and 10% FBS for HEK-293, and HepG2[40]. Cells were seeded as 2000 cells per well in black wall clear bottom 384-well plates (Corning®, Costar®, Cat # 3712). The cells were incubated for 24 h at 37 °C, 5% CO2. Then peptides were added into each cell containing well. After 24 h incubation, 5 μM resazurin were added per well and incubated at 37 °C for 2 h. Then the fluorescence intensity (FI) was read using a Polarstar® Omega plate reader with excitation/emission 560/590 and CC50 values were determined using Prism 8 following curve fitting and applying the following equation: Percentageviability = (FITEST-FINegative/FIUNTREATED-FINegative)×100.
# (§3) Hemolytic activity was measured against isolated human erythrocytes from anonymously donated fresh human blood. Isolated erythrocytes were adjusted to 1 × 10^9 blood cells mL^−1 in phosphate-buffered saline (PBS, pH 7.4), added to the wells of NUNC polypropylene round-bottom 96-well plates (Sigma-Aldrich, Cat # P6866) then up to 300 μg mL^−1 of compound was added per well and incubated for 3 h at 37 °C. Following incubation, samples were centrifuged at 3000 rpm for 20 min, and the supernatants, 100 μL, were carefully collected for measurement. The degree of hemolysis in the samples was determined by measurement of the absorption of the supernatants at 540 nm using the Polarstar-Omega plate reader. 1% Triton-X100 was used as positive control for inducing 100% hemolysis. HC10 and HC50 values were determined using Prism 8 following curve fitting. The use of human blood (sourced from the Australian Red Cross Blood Service) for hemolysis assays was approved by the University of Queensland Institutional Human Research Ethics Committee, Approval Number 2014000031. All in vitro toxicity assays were performed for two independent biological replicates as an 8-point dose response of 3-fold dilution series in triplicate with the highest test concentration of 300 μg mL^−1.
# [12] = test system: HK-2 human kidney proximal tubule cells; assay: in vitro
# Description: as §2, §3
# [13] = in vitro; conditions: human
# Description: as §2, §3
# [14] = test system: HEK-293 human embryonic kidney cells; assay: in vitro
# Description: as §2, §3
# [15] = test system: E. coli K12 MG1655; assay: ATP release, BacTiter-Glo luminescence; format: cell-based, Escherichia coli; conditions: E. coli K12, X = xMIC, 24 Y values
# Description: ATP was measured using the BacTiter-Glo^TM Microbial Cell Viability Assay (Promega) following the manufacturer’s instructions. The assay was performed for three biological replicates at 37 °C, with luminescence recorded using a Tecan Infinite M1000 Pro plate reader. The fold reduction of ATP was calculated as: Fold reduction ATP = 1 − (Ltreat − Lmedia/Lcontrol − Lmedia); where Ltreat is the luminescence of treated cells, Lmedia is the luminescence of CAMHB without cells, and Lcontrol is the luminescence of untreated cells. Resultant graphs show mean (n = 7) and std error for each data point, prepared in Prism 8. DMSO was included as a control as piperacillin was solubilized in DMSO, with final assay concentration of 2.5%.
# [16] = fit headed 10 min, four-parameter variable slope
# [17] = fit headed 30 min, four-parameter variable slope
# [18] = fit headed 60 min, four-parameter variable slope
SMILES,"Heamolysis HC10, Mean [1] [µg/mL]",Heamolysis HC10 [1] [µg/mL],BMD MIC [2] [µg/mL],MIC against ESBL producing E. coli DSA 443 [3] [µg/mL],BMD MIC [4] [µg/mL],BMD MIC [5] [µg/mL],BMD MIC ([5]; 24 h) [µg/mL],BMD MIC [6] [µg/mL],BMD MIC [7] [µg/mL],BMD MIC [8] [µg/mL],BMD MIC [9] [µg/mL],"MIC, MHB [10] [µg/mL]",CC50 HepG2 [11] [µg/mL],"CC50 HepG2, Mean [11] [µg/mL]",CC50 HK2 [12] [µg/mL],"CC50 HK2, Mean [12] [µg/mL]",CC50 at 24 h ([13]; HEK-293 cells) [µg/mL],CC50 at 24 h ([13]; HK-2 cells) [µg/mL],CC50 at 24 h ([13]; HepG2 cells) [µg/mL],CC50 HEK293 [14] [µg/mL],other results
"CC[C@H](C)[C@@H]1NC(=O)[C@H](CCCNC(=N)N)NC(=O)[C@H](C(C)C)NC(=O)CNC(=O)[C@H](CC(N)=O)NC(=O)[C@H](CCCNC(=N)N)NC(=O)[C@H](Cc2ccc(O)cc2)NC(=O)[C@H](C(C)C)NC(=O)[C@@H]2CSSC[C@H](NC1=O)C(=O)N[C@@H](Cc1c[nH]cn1)C(=O)N[C@@H](CCCNC(=N)N)C(=O)N[C@@H](CCCNC(=N)N)C(=O)N[C@H](C(=O)N[C@@H](CC(N)=O)C(=O)O)CSSC[C@H](NC(=O)[C@H](Cc1ccccc1)NC(=O)CN)C(=O)N[C@@H](Cc1c[nH]c3ccccc13)C(=O)N[C@@H](CC(N)=O)C(=O)N[C@@H](C(C)C)C(=O)N2 [NZ17211] (HELM PEPTIDE1{G.F.C.W.N.V.C.V.Y.R.N.G.V.R.I.C.H.R.R.C.N}$PEPTIDE1,PEPTIDE1,3:R3-20:R3|PEPTIDE1,PEPTIDE1,7:R3-16:R3$$$V2.0)",>300,>300,1,2.0,2,>32,64,4,4,16,2,0.5,>300,>300,>255,>250,> 300,> 250,> 300,>300,"CC50 HEK293, Mean [14]: >300 µg/mL"
"C[C@@H]1[C@H](O)[C@@H](C)/C=C/C=C/C=C/C=C/C=C/C=C/C=C/[C@H](O[C@@H]2O[C@H](C)[C@@H](O)[C@H](N)[C@@H]2O)C[C@@H]2O[C@](O)(C[C@@H](O)C[C@@H](O)[C@H](O)CC[C@@H](O)C[C@@H](O)CC(=O)O[C@H]1C)C[C@H](O)[C@H]2C(=O)O [Amphroterocin B, reference compound]",,,,,,,,,,,,,,,,,,,,,"BMD MIC ([5]; C. albicans ATCC 90028 NCCLS 11, RPMI, mode of 6 replicates): 0.5 µg/mL; BMD MIC ([5]; C. albicans ATCC 90028 NCCLS 11, YPD, 24 h 35 °C, mode of 6 replicates): 1 µg/mL; BMD MIC ([6]; C. neoformans ATCC 208821 H99, RPMI, mode of 6 replicates): 0.5 µg/mL; BMD MIC ([6]; C. neoformans ATCC 208821 H99, YPD, 24 h 35 °C + resazurin 3 h, mode of 6 replicates): 0.5 µg/mL"
"OC(Cn1cncn1)(Cn1cncn1)c1ccc(F)cc1F [Fluconazole, reference compound]",,,,,,,,,,,,,,,,,,,,,"MIC ([5]; ATCC90028, 24 h, read-out: BMD MIC): 1 µg/mL; MIC ([5]; ATCC90028, read-out: BMD MIC): 0.5 µg/mL; MIC ([6]; RPMI, mode of 6 replicates): 2 µg/mL; MIC ([6]; YPD, 24 h 35 °C + resazurin 3 h, mode of 6 replicates): 8 µg/mL"
"CC(C)[C@@H]1NC(=O)CNC(=O)[C@H](CC(N)=O)NC(=O)[C@H](CCCNC(=N)N)NC(=O)[C@H](CCCNC(=N)N)NC(=O)[C@H](C(C)C)NC(=O)[C@@H]2CSSC[C@H](NC(=O)[C@H](C(C)C)NC(=O)[C@H](CCCNC(=N)N)NC1=O)C(=O)N[C@@H](Cc1c[nH]cn1)C(=O)N[C@@H](CCCNC(=N)N)C(=O)N[C@@H](CCCNC(=N)N)C(=O)N[C@H](C(=O)N[C@@H](CC(N)=O)C(=O)O)CSSC[C@H](NC(=O)[C@H](Cc1ccccc1)NC(=O)CN)C(=O)N[C@@H](Cc1c[nH]c3ccccc13)C(=O)N[C@@H](CC(N)=O)C(=O)N[C@@H](C(C)C)C(=O)N2 [NZ17143] (HELM PEPTIDE1{G.F.C.W.N.V.C.V.R.R.N.G.V.R.V.C.H.R.R.C.N}$PEPTIDE1,PEPTIDE1,3:R3-20:R3|PEPTIDE1,PEPTIDE1,7:R3-16:R3$$$V2.0)",>300,>300,0.5,0.5,1,>32,32,4,2,8,1,0.25,>300,>300,>253,>250,> 300,> 250,> 300,>300,"CC50 HEK293, Mean [14]: >300 µg/mL"
CCN1CCN(C(=O)N[C@@H](C(=O)N[C@@H]2C(=O)N3[C@@H]2SC(C)(C)[C@@H]3C(=O)O)c2ccccc2)C(=O)C1=O [piperacillin],,,,,,,,,,,,,,,,,,,,,"ATP release, nonlinear fit: HillSlope [15, 16]: ~ -467.9; ATP release, nonlinear fit: IC50 [15, 16]: ~ 31.42 xMIC; ATP release, nonlinear fit: LogIC50 [15, 16]: ~ 1.497; ATP release, nonlinear fit: Top [15, 16]: 0.08165; ATP release, nonlinear fit: Bottom ([15]; fit headed 10 min, log(inhibitor) vs. response, variable slope (four parameters)): 0.04818; ATP release, nonlinear fit: Bottom [15, 17]: ~ 0.04736; ATP release, nonlinear fit: IC50 [15, 17]: ~ 0.000 xMIC; ATP release, nonlinear fit: Top [15, 17]: 0.07515; ATP release, nonlinear fit: Bottom [15, 18]: 0.00107; ATP release, nonlinear fit: HillSlope [15, 18]: ~ 0.6194; ATP release, nonlinear fit: LogIC50 [15, 18]: ~ 16.74; ATP release, nonlinear fit: Top [15, 18]: 0.1665; MIC ([3]; Escherichia coli, ATCC700926|MG1655, read-out: BMD MIC, E. coli ATCC 700926 K12 (MG1655), CAMHB, mode of 6 replicates): 2 µg/mL"
